Test results as given in patent US8481738B2, “Gonadotropin-releasing hormone receptor antagonists and methods relating thereto” (Neurocrine Biosciences, Inc., priority 2007, dated 2013).

Target: T1, human GnRH receptor (Homo sapiens, UniProt P30968)
T1 construct: expressed in transfected cells; host or cells: RBL cells, stably transfected (in general)
T1 sequence (P30968 1-328): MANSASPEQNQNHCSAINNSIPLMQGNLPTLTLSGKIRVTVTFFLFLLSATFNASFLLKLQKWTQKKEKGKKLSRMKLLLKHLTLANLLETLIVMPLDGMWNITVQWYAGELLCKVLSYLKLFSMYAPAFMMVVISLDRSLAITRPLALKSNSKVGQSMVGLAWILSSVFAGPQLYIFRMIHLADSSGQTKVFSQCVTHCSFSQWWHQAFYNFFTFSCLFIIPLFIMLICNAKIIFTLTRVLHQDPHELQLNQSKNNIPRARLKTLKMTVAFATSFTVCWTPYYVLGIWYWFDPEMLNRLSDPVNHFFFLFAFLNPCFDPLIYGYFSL
Assay: Peptide competition radioligand binding displacement assay, human GnRH receptor membranes
Conditions: one or more of the peptide competition human receptor binding assays
Experimental: cDNA's of human, rhesus macaque, rabbit, dog and rat GnRH receptors are cloned into pcDNA3.1 (+) (Invitrogen). Full length sequences of all receptors are confirmed by DNA sequencing. HEK 293, CHO, COS-7, or rat basophilic leukemia (RBL) cells are stably transfected with human, rat, or macaque GnRH receptors and high expressing single cell clones (Bmax≧0.4 pMol/mg membrane protein) are isolated and maintained in Dulbecco's Modified Eagles Medium (DMEM) with following supplements: 10 mM HEPES; 2 mM L-glutamine; 1 mM Sodium Pyruvate; 50 U/mL penicillin, 50 μg/mL streptomycin; 10% Heat-inactivated Fetal Bovine Serum and 200 μg/mL Geneticin (G-418-Sulfate). Non-essential amino acids (0.1 mM) (Irvine Scientific; Santa Ana, Calif.) are included in the RBL cell media.
In general, initial peptide radioligand binding assays are carried out using membranes from stably transfected RBL cells. RBL stable clones are found to more consistently express high levels of GnRH receptor and are therefore used for subsequent binding studies as well as Ca^++ flux and inositol phosphate accumulation assays. Transiently transfected COS-7 cells are used for preparation of membranes containing GnRH receptors from multiple species (as well as those of mutant receptors for other studies) because of the convenience for rapidly analyzing multiple receptors.
HEK293 cells stably transfected with the human GnRH receptor are grown for two days after achieving confluence then are harvested by striking tissue culture flasks against a firm surface. Cells are collected by centrifugation at 1000 g for 5 minutes. Cell pellets are resuspended in 5% sucrose and homogenized using a polytron homogenizer for two 15 second homogenization steps. Cell homogenates are then centrifuged for 5 minutes at 3000 g to remove nuclei and the supernatant subsequently centrifuged for 30 minutes at 44,000 g to collect the membrane fraction. The membrane pellet is resuspended in GnRH binding buffer (10 mM HEPES, pH 7.5, 150 mM NaCl and 0.1% BSA) and aliquots immediately snap-frozen in liquid nitrogen and stored at −80° C. Protein content of the membrane suspension is determined using the Bio-Rad protein assay kit (Bio-Rad).
RBL cells stably transfected with the human GnRH receptor are grown to 80% confluency prior to harvesting. The cells are incubated at 37° C. for 10 min in 0.5 mM EDTA/PBS (Ca^++, Mg^++ free), and are dislodged from the plate by gentle rapping of the flasks. Cells are collected and pelleted by centrifugation at 1000 g for 5 minutes. Cell pellets are resuspended in buffer (DPBS supplemented with 10 mM MgCl2, 2 mM EGTA, pH=7.4), and cell lysis is performed using a pressure cell and applying N2 at a pressure of 900 psi for 30 min at 4° C. Unbroken cells and larger debris were removed by centrifugation at 1200 g for 10 min at 4° C. The cell membrane supernatant is then centrifuged at 45,000 g and the resulting membrane pellet is resuspended in assay buffer and homogenized on ice using a tissue homogenizer. Protein concentrations are determined using the Coomassie Plus Protein Reagent kit. Membranes are aliquoted and stored at −80° C. until ready for use.
COS-7 cells transiently transfected with GnRH receptors from different species (human, macaque, dog, rabbit, rat) or mutant GnRH receptors are prepared by bulk electroporation. COS-7 cells are obtained from American Type Cell Culture (Manassas, Va.) and are maintained in Dulbeccos's modified Eagle's medium (DMEM) (MediaTech Inc., Herndon, Va.) containing 10% fetal bovine serum, 10 mM HEPES, 2 mM L-glutamine, 1 mM sodium pyruvate, 50 U/mL penicillin, 50 μg/mL streptomycin. COS-7 cells are seeded in 500 cm^2 tissue culture plates and grown to confluency prior to cell transfection. […]

Structure (SMILES) | Ki
COc1ccccc1N(C)C(=O)c1ccc(Cl)c(-c2ncc(Cl)cc2Cl)c1 [19-2, 4-chloro-3-(3,5-dichloro-pyridin-2-yl)-N-(2-methoxy-phenyl)-N-methyl-benzamide] | ≤ 100 nM
CN(C(=O)c1ccc(Cl)c(-c2ncc(Cl)cc2Cl)c1)c1cccc(F)c1 [19-3] | ≤ 100 nM
COC(=O)c1ccccc1N(C)C(=O)c1ccc(Cl)c(-c2ncc(Cl)cc2Cl)c1 [19-6] | ≤ 100 nM
COc1c(Cl)cccc1N(C)C(=O)c1ccc(Cl)c(-c2ncc(Cl)cc2Cl)c1 [19-7] | ≤ 100 nM
Cc1cccc(C)c1N(C)C(=O)c1ccc(Cl)c(-c2ncc(Cl)cc2Cl)c1 [19-8] | ≤ 100 nM
COc1cccc(N(C)C(=O)c2ccc(Cl)c(-c3ncc(Cl)cc3Cl)c2)c1 [19-9] | ≤ 100 nM
Cc1cccc(N(C)C(=O)c2ccc(Cl)c(-c3ncc(Cl)cc3Cl)c2)c1C [19-10] | ≤ 100 nM
Cc1ccccc1N(C)C(=O)c1cc(-c2cnc(C(F)(F)F)cc2C#N)c(Cl)cc1OCCCC(=O)O [20-1, 4-[5-Chloro-4-(4-cyano-6-trifluoromethyl-pyridin-3-yl)-2-(methyl-o-tolyl-carbamoyl)-phenoxy]-butyric acid] | ≤ 100 nM
Cc1ccccc1N(C)C(=O)c1cc(-c2cnc(Cl)cc2Cl)c(Cl)cc1OCCCC(=O)O [20-2] | ≤ 100 nM
Cc1ccccc1N(C)C(=O)c1cc(-c2nc3ccccc3cc2C#N)c(Cl)cc1OCCCC(=O)O [20-3] | ≤ 100 nM
COc1cccc(C)c1N(C)C(=O)c1cc(-c2cnc(C(F)(F)F)cc2C#N)c(Cl)cc1OCCCCO [21-1, 4-Chloro-5-(4-cyano-6-trifluoromethyl-pyridin-3-yl)-2-(4-hydroxy-butoxy)-N-(2-methoxy-6-methyl-phenyl)-N-methyl-benzamide] | ≤ 100 nM
COc1cccc(C)c1N(C)C(=O)c1cc(-c2cnc(C#N)cc2C)c(Cl)cc1OCCCCO [21-2] | ≤ 100 nM
COc1cccc(C)c1N(C)C(=O)c1cc(-c2nc3ccccc3cc2C#N)c(Cl)cc1OCCCCO [21-3] | ≤ 100 nM
Cc1cccc(C)c1N(C)C(=O)c1cc(-c2cnc(C(F)(F)F)cc2C#N)c(Cl)cc1OCCCCO [21-4] | ≤ 100 nM
Cc1cc(C#N)ncc1-c1cc(C(=O)N(C)c2c(C)cccc2C)c(OCCCCO)cc1Cl [21-5] | ≤ 100 nM
Cc1cccc(C)c1N(C)C(=O)c1cc(-c2nc3ccccc3cc2C#N)c(Cl)cc1OCCCCO [21-6] | ≤ 100 nM
COc1cccc(C)c1N(C)C(=O)c1cc(-c2cnc(C(F)(F)F)cc2C#N)c(Cl)cc1OCCO [21-7] | ≤ 100 nM
COc1cccc(C)c1N(C)C(=O)c1cc(-c2cnc(C(F)(F)F)cc2C#N)c(Cl)cc1OCCCO [21-8] | ≤ 100 nM
COc1cccc(C)c1N(C)C(=O)c1cc(-c2cnc(C(F)(F)F)cc2C#N)c(Cl)cc1OCCCC(=O)O [22-1, 4-{5-Chloro-4-(4-cyano-6-trifluoromethyl-pyridin-3-yl)-2-[(2-methoxy-6-methyl-phenyl)-methyl-carbamoyl]-phenoxy}-butyric acid] | ≤ 100 nM
COc1cccc(C)c1N(C)C(=O)c1cc(-c2cnc(C#N)cc2C)c(Cl)cc1OCCCC(=O)O [22-2] | ≤ 100 nM
COc1cccc(C)c1N(C)C(=O)c1cc(-c2nc3ccccc3cc2C#N)c(Cl)cc1OCCCC(=O)O [22-3] | ≤ 100 nM
Cc1cccc(C)c1N(C)C(=O)c1cc(-c2cnc(C(F)(F)F)cc2C#N)c(Cl)cc1OCCCC(=O)O [22-4] | ≤ 100 nM

Structure (SMILES) | Ki
Cc1cccc(C)c1N(C)C(=O)c1cc(-c2nc3ccccc3cc2C#N)c(Cl)cc1OCCCC(=O)O [22-6] | ≤ 100 nM
Cc1cc(C#N)ncc1-c1cc(C(=O)N(C)c2c(C)cccc2C)c(OCCCC(=O)O)cc1Cl [22-8] | ≤ 100 nM
COc1cccc(C)c1N(C)C(=O)c1cc(-c2cnc(C(F)(F)F)cc2C#N)c(Cl)cc1OCC(=O)O [22-9] | ≤ 100 nM
COc1cccc(C)c1N(C)C(=O)c1cc(-c2cnc(C(F)(F)F)cc2C#N)c(Cl)cc1OCCC(=O)O [22-10] | ≤ 100 nM
COc1cccc(C)c1N(C)C(=O)c1cc(-c2cnc(C(F)(F)F)cc2C#N)c(Cl)cc1OCCCN [23-1, 2-(3-Amino-propoxy)-4-chloro-5-(4-cyano-6-trifluoromethyl-pyridin-3-yl)-N-(2-methoxy-6-methyl-phenyl)-N-methyl-benzamide] | ≤ 100 nM
COc1ccccc1N(C)C(=O)c1ccc(Cl)c(-c2cnc(C(N)=O)cc2C)c1 [24-2, 5-{2-chloro-5-[(2-methoxy-phenyl)-methyl-carbamoyl]-phenyl}-4-methyl-pyridine-2-carboxylic acid amide] | ≤ 100 nM
COc1cccc(C)c1N(C)C(=O)c1ccc(Cl)c(-c2cnc(SC)cc2C)c1 [26-1, 4-Chloro-N-(2-methoxy-6-methyl-phenyl)-N-methyl-3-(4-methyl-6-methyl-sulfanylpyridin-3-yl)-benzamide] | ≤ 100 nM
COc1ccccc1N(C)C(=O)c1ccc(Cl)c(-c2c(Cl)cc(Cl)c[n+]2[O-])c1 [27-1, 4-Chloro-3-(3,5-dichloro-1-oxy-pyridin-2-yl)-N-(2-methoxy-phenyl)-N-methyl-benzamide] | ≤ 100 nM
CN(C(=O)c1ccc(Cl)c(-c2cnc(C(F)(F)F)cc2C#N)c1)c1ccccc1OCCCc1nnn[nH]1 [28-1, 4-Chloro-3-(4-cyano-6-trifluoromethyl-pyridin-3-yl)-N-methyl-N-{2-[3-(1H-tetrazol-5-yl)-propoxy]-phenyl}-benzamide] | ≤ 100 nM
Cc1c(F)cccc1N(C)C(=O)c1ccc(Cl)c(-n2c(C)cc(C(F)(F)F)nc2=O)c1 [30-7] | ≤ 100 nM
Cc1cc(C(F)(F)F)nc(=O)n1-c1cc(C(=O)N(C)c2cc(F)ccc2Cl)ccc1Cl [30-9] | ≤ 100 nM
COc1cccc(C)c1N(C)C(=O)c1ccc(Cl)c(-n2c(C)cc(C(F)(F)F)nc2=O)c1 [30-10] | ≤ 100 nM
Cc1cccc(C)c1N(C)C(=O)c1ccc(Cl)c(-n2c(C)cc(C(F)(F)F)nc2=O)c1 [30-11] | ≤ 100 nM
Cc1c(Cl)cccc1N(C)C(=O)c1ccc(Cl)c(-n2c(C)cc(C(F)(F)F)nc2=O)c1 [30-12] | ≤ 100 nM
Cc1cc(C(F)(F)F)nc(=O)n1-c1cc(C(=O)N(C)c2cccc(F)c2F)ccc1Cl [30-13] | ≤ 100 nM
Cc1cccc(N(C)C(=O)c2ccc(Cl)c(-n3c(C)cc(C(F)(F)F)nc3=O)c2)c1C [30-14] | ≤ 100 nM
COc1ccccc1N(C)C(=O)c1ccc(Cl)c(-n2c(C)cc(C(F)(F)F)nc2=O)c1 [30-15] | ≤ 100 nM
Cc1cc(C(F)(F)F)nc(=O)n1-c1cc(C(=O)N(C)c2ccccc2F)ccc1Cl [30-16] | ≤ 100 nM
Cc1cc(C(F)(F)F)nc(=O)n1-c1cc(C(=O)N(C)c2cccc(F)c2)ccc1Cl [30-17] | ≤ 100 nM
CN(C(=O)c1ccc(Cl)c(-c2cnc(C(F)(F)F)cc2C#N)c1)c1ccccc1OCCc1n[nH]c(=O)o1 [31-1, 4-Chloro-3-(4-cyano-6-trifluoromethyl-pyridin-3-yl)-N-methyl-N-{2-[2-(5-oxo-4,5-dihydro-[1,3,4]oxadiazol-2-yl)ethoxy]-phenyl}-benzamide] | ≤ 100 nM
CN(C(=O)c1ccc(Cl)c(-c2nc3cccc(F)c3cc2C#N)c1)c1ccccc1OCCCC(=O)O [33-1, 4-(2-{[4-Chloro-3-(3-cyano-5-fluoro-quinolin-2-yl)-benzoyl]-methyl-amino}-phenoxy)-butyric acid] | ≤ 100 nM
CN(C(=O)c1ccc(Cl)c(-c2nc3c(F)cccc3cc2C#N)c1)c1ccccc1OCCCC(=O)O [33-2] | ≤ 100 nM
